US7642283B2, “Mitochrondrial permeability transition pore affinity labels and modulators” (Hoffmann-La Roche Inc., priority 2003, dated 2010)

Legend:
MPTP [1] = test: Ca2+-induced swelling (MPTP) in rat liver mitochondria energised with succinate; format: biochemical; conditions: as E1, in the presence of 1 μg/ml oligomycin
Method: Ca^2+-induced swelling (sucrose permeability) in energized mitochondria was assayed at 25° C. in 96 well-plates by measuring changes in absorbance at 540 nm by means of a […]ax 250 spectrophometer controlled by the SOFTmax PRO™ software (Molecular Devices, Switzerland). The incubation medium contained 0.2 M sucrose, 10 mM Tris-Mops, pH 7.4, 1 mM Pi-Tris, 5 μM EGTA. Succinate (5 mM, in the presence of 2 μM rotenone) or 5 mM glutamate/2.5 mM malate, buffered to pH 7.4 with Tris, were used as respiratory substrates. After a short (˜5 min) preincubation in presence or absence of test compounds, mitochondrial swelling was induced by the addition of 20 μl CaCl2 at final concentrations ranging from 40 to 80 μM, depending on respiratory substrates and Ca^2+ sensitivity of the mitochondrial preparation. The final incubation volume was 0.2 ml and the concentration of mitochondria was ˜0.5 mg mitochondrial protein ml^−1. Swelling kinetics was followed for up to 30 min at 25° C. Absorbance readings were taken every 12 sec and the plate was shaken for 3 s between readings to ensure oxygen diffusion during the experiment and to avoid sedimentation of the mitochondria.
The incubation medium contained 0.2 M sucrose, 10 mM Tris-Mops, pH 7.4, 1 mM Pi-Tris, 5 μM EGTA.

MPTP [2] = target: T1, MPTP (Rattus norvegicus, UniProt Q9Z2L0); test: Ca2+-retention capacity of rat brain mitochondria (Calcium Green-5N); format: biochemical; conditions: Ca2+ pulses, rat brain mitochondria
T1 construct: other: n=2; glutamate/malate; other: glutamate/malate; 20 min; mean±SEM; unit not given; other: 300 nM; relieved by 50 μM Ub5
T1 sequence (Q9Z2L0 2-283): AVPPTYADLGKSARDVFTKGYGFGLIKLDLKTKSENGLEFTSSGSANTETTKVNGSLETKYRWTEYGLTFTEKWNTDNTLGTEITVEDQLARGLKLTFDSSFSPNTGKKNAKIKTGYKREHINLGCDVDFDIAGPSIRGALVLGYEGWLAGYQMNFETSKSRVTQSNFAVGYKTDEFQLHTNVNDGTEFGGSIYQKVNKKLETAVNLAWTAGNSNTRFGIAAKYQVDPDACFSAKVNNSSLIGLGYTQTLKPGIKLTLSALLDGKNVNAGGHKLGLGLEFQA
Method: FIG. 4: (A) Effect of Spiro[cyclopentane-1,5′-[5H]dibenzo[a,d]cyclohepten]-2-one,10′,11′-dihydro-3-methylene- and CsA on Ca^2+-retention capacity of rat brain mitochondria. The incubation medium contained 0.2 M sucrose, 10 mM Tris-Mops, pH 7.4, 1 mM Pi-Tris, 5 μM EGTA and 5 mM glutamate/2.5 mM malate, buffered to pH 7.4 with Tris, containing 0.01% (w/v) bovine serum albumin and 1 μM Calcium Green-5N. The final volume was 2.5 ml. Trace (a) control, (b) 1 μM CsA, (c) 1 μM Spiro[cyclopentane-1,5′-[5H]dibenzo[a,d]cyclohepten]-2-one,10′,11′-dihydro-3-methylene- and (d) 1 μM CsA plus 1 μM Spiro[cyclopentane-1,5′-[5H]dibenzo[a,d]cyclohepten]-2-one,10′,11′-dihydro-3-methylene-. Each fluorescence spike corresponds to addition of 5 μM Ca^2+. (B) Comparison of Ca^2+-retention capacity in liver (a) and brain mitochondria (b).
Effect of Spiro[cyclopentane-1,5′-[5H]dibenzo[a,d]cyclohepten]-2-one,10′,11′-dihydro-3-methylene- and CsA on Ca^2+-retention capacity of rat brain mitochondria (FIG. 4). Measurement of extramitochondrial Ca^2+ was determined using a Perkin-Elmer LS-50B fluorimeter controlled by the FL WinLab computer program. […] The final volume was 2.5 ml and the cuvette was thermostated at 25° C. Brain mitochondria were then subjected to a train of 5 μM Ca^2+ additions (˜150 nmol mg protein^−1). Extramitochondrial Ca^2+ was monitored at excitation/emission wavelengths of 505-535. […] The Ca^2+-retention capacity in liver (a) and brain mitochondria (b) were also compared (FIG. 4B).
The effect of Spiro[cyclopentane-1,5′-[5H]dibenzo[a,d]cyclohepten]-2-one,10′,11′-dihydro-3-methylene- at inhibiting MPTP was also investigated in mitochondria isolated from rat forebrain. […] Due to the difficulties mentioned above, the effect of Spiro[cyclopentane-1,5′-[5H]dibenzo[a,d]cyclohepten]-2-one,10′,11′-dihydro-3-methylene- on MPTP in brain mitochondria was more accurately investigated by subjecting mitochondria isolated from rat forebrain to a series of Ca^2+ pulses (5 μM, ˜150 nmol mg protein^−1) and by monitoring extramitochondrial Ca^2+ or using fluororescent probes.

VDAC1 = target: T2, VDAC1 (Rattus norvegicus, UniProt Q9Z2L0); test: Affinity labeling of rat mitochondria with the tritiated spiro compound, SDS-PAGE and fluorography; format: binding
T2 construct: from tissue; host or cells: Percoll-purified rat brain and liver mitochondria
T2 sequence (Q9Z2L0 whole entry): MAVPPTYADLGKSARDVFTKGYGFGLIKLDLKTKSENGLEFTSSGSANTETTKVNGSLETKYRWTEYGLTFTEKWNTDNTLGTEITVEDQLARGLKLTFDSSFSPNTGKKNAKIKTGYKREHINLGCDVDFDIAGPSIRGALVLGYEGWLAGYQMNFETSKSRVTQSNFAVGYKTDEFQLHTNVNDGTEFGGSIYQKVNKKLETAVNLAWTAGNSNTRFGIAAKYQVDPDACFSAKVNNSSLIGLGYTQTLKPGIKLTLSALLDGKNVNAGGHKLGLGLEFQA
Method: FIG. 6: Affinity-labeling of isolated rat brain (A) and liver (B) mitochondria. Mitochondrial preparations were incubated in the presence of 10 nM Spiro[cyclopentane-1,5′-[5H]dibenzo[a,d]cyclohepten]-2-one,10′,11′-t2-10′,11′-dihydro-3-methylene- for 15 min at 25° C. in presence or absence of various concentrations of Spiro[cyclopentane-1,5′-[5H]dibenzo[a,d]cyclohepten]-2-one,10′,11′-dihydro-3-methylene-(unlabeled). Samples were submitted to SDS-PAGE (see Experimental Procedures section for details) and fluorography. The fluorograms of the gels are shown. The molecular mass scale (kDa) is shown in the ordinate.
(§1) FIG. 8: (A) Effect of monobromobimano (MBBM) and phenylarsino oxide (PhAO) on VDAC1 labeling by Spiro[cyclopentane-1,5′-[5H]dibenzo[a,d]cyclohepten]-2-one,10′,11′-t2-10′,11′-dihydro-3-methylene- in rat brain mitochondria. Experimental conditions were as in the legend to FIG. 5. (B) Effect of various MPTP inhibitors, atractyloside (ATR) and DIDS on VDAC1 labeling by Spiro[cyclopentane-1,5′-[5H]dibenzo[a,d]cyclohepten]-2-one,10′,11′-t2-10′,11′-dihydro-3-methylene- in rat brain mitochondria. Mitochondria were exposed to DIDS for 5 min before rinsing for removal of the free agent and labeling with Spiro[cyclopentane-1,5′-[5H]dibenzo[a,d]cyclohepten]-2-one,10′,11′-t2-10′,11′-dihydro-3-methylene.
Percoll purified mitochondria (˜30 μg protein per sample) were incubated in the presence of 10 nM Spiro[cyclopentane-1,5′-[5H]dibenzo[a,d]cyclohepten]-2-one,10′,11′-t2-10′,11′-dihydro-3-methylene- in a final volume of 200 μl. After incubation for 15 min at 25° C., samples were centrifuged at 25000×g and the mitochondrial pellet rinsed twice with buffer. Samples were then solubilized in sample buffer containing β-mercaptoethanol (1 h at 37° C.) and subjected to SDS-polyacrylamide gel-electrophoresis (SDS-PAGE) on Tris-glycine Novex pre-cast mini-gels (12% monomer concentration, Invitrogen BV, The Netherlands). After Coomassie Blue staining, gels were processed for fluorography by soaking in Amplify™ (Amersham Biosciences), drying and exposing to X-ray BioMax MS film with BioMax MS intensifying screen (Kodak) at −80° C. for the appropriate time.
as §1, with “Effect” for “FIG. 8: (A) Effect”, “monobromobimano” for “monobromobimano (MBBM)”, “oxide” for “oxide (PhAO)”, “Example 12 (FIG. 8A).” for “the legend to FIG. 5. (B)”, “Spiro[cyclopentane-1,5′-[5H]dibenzo[a,d]cyclohepten]-2-one,10′,11′-t2-10′,11′-dihydro-3-methylene (FIG. 8B).” for “Spiro[cyclopentane-1,5′-[5H]dibenzo[a,d]cyclohepten]-2-one,10′,11′-t2-10′,11′-dihydro-3-methylene.”

human VDAC1 = target: T3, human VDAC1 (Homo sapiens, UniProt P21796); test: Affinity labeling of Δpor1 yeast mitochondria expressing human VDAC1; format: binding; conditions: Δpor1 strains with plasmid expressing human VDAC1
T3 construct: expressed in transfected cells; host or cells: Δpor1 yeast strain transformed with a human VDAC1 plasmid; isolated mitochondria
T3 sequence (P21796 whole entry): as the sequence (Q9Z2L0 whole entry) above, with N55T, V129M, S160A, V227I counted along it
From the text: (§2) To further confirm VDAC1 as the protein target of Spiro[cyclopentane-1,5′-[5H]dibenzo[a,d]cyclohepten]-2-one,10′,11′-dihydro-3-methylene-, the labeling of proteins in mitochondria prepared from yeasts by Spiro[cyclopentane-1,5′-[5H]dibenzo[a,d]cyclohepten]-2-one,10′,11′-t2-10′,11′-dihydro-3-methylene- was investigated. […] Increasing concentration of unlabelled Spiro[cyclopentane-1,5′-[5H]dibenzo[a,d]cyclohepten]-2-one,10′,11′-dihydro-3-methylene-inhibited incorporation of the radioactivity (FIG. 9).

YVDAC1 [3] = target: T4, YVDAC1 (Saccharomyces cerevisiae, UniProt P04840); test: Affinity labeling of yeast mitochondria (Δpor1 and Δpor1 expressing YVDAC1); format: binding; conditions: Δpor1 strains with plasmid expressing YVDAC1
T4 construct: expressed in transfected cells; host or cells: Δpor1 yeast strain carrying a YVDAC1 plasmid; isolated mitochondria
T4 sequence (P04840 2-283): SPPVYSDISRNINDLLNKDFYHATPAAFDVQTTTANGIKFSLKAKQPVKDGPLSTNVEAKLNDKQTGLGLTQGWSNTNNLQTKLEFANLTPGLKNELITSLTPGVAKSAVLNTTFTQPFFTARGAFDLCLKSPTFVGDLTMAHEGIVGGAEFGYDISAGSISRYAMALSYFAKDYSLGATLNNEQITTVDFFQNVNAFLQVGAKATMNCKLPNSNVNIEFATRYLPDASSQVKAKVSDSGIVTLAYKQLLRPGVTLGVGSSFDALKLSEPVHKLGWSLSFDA
From the text: (§3) FIG. 9: Spiro[cyclopentane-1,5′-[5H]dibenzo[a,d]cyclohepten]-2-one,10′,11′-t2-10′,11′-dihydro-3-methylene affinity labeling of yeast mitochondria lacking the por1 gene for YVDAC1 (Δpor1) and into Δpor1 yeast mitochondria transfected with YVDAC1 in presence or absence of different concentrations of Spiro[cyclopentane-1,5′-[5H]dibenzo[a,d]cyclohepten]-2-one,10′,11′-dihydro-3-methylene (unlabeled). The fluorograms of gels after SDS-PAGE are shown. Mitochondria isolated from yeast strains were incubated in the presence of 10 nM Spiro[cyclopentane-1,5′-[5H]dibenzo[a,d]cyclohepten]-2-one,10′,11′-t2-10′,11′-dihydro-3-methylene for 15 min at 25° C. Numbers indicate the concentrations (μM) of the various compounds added.
as §2

YVDAC1 [4] = test: as above; format: binding; conditions: Δpor1 strains
From the text: as §3, §2

Row | Structure (SMILES) | EC50 (MPTP [1]) [µM] | Additive effect when combined with the spiro compound (Example 2) (MPTP [2]) | Effect on VDAC1 labeling (incorporation of radioactivity) by the tritiated spiro compound (VDAC1; rat brain mitochondria, 10 nM radiolabel) | Labeling in yeast mitochondria expressing human VDAC1 (human VDAC1) | Labeling of 29 kDa band in yeast mitochondria (YVDAC1 [3]) | Labeling in yeast mitochondria lacking YVDAC1 (YVDAC1 [4]) | Labeling of ~32 kDa protein (VDAC1) (VDAC1; 10 nM, intact rat brain and liver mitochondria)
1 | Nc1ncnc2c1ncn2[C@@H]1O[C@H](COP(=O)(O)OP(=O)(O)O)[C@@H](O)[C@H]1O [ADP] | 4.8 | additive | did not affect | – | – | – | –
2 | [3H]C1c2ccccc2C2(CCC(=C)C2=O)c2ccccc2C1[3H] (stereo not shown) [Spiro[cyclopentane-1,5′-[5H]dibenzo[a,d]cyclohepten]-2-one,10′,11′-t2-10′,11′-dihydro-3-methylene-] | – | – | – | no dear labeling | prominent labeling | virtually no labeling | predominantly labeled
